Results as given in ChEMBL document CHEMBL6153073, “Synthesis and functional screening of novel inhibitors targeting the HDAC6 zinc finger ubiquitin-binding domain” (Eur J Med Chem, 2025).
One block for each compound: values may come before it. Activity calls are given as the source filed them. No cut-off for these calls is given here. Where a SMILES comes first, the peptide text is derived from it. The star is where a group is joined. Cbz = O=C(OCc1ccccc1)*

Key:
[1] = target: T1, Protein deacetylase HDAC6 (Homo sapiens, UniProt Q9UBN7); experiment: Displacement of FITC-labeled C-terminal ubiquitin LRLRGG peptide from HDAC6-ubiquitin binding domain (1109 to 1215 residues) (unknown origin) extracted from Escherichia coli BL21 (DE3) by FPPD assay
T1 sequence (Q9UBN7 whole entry): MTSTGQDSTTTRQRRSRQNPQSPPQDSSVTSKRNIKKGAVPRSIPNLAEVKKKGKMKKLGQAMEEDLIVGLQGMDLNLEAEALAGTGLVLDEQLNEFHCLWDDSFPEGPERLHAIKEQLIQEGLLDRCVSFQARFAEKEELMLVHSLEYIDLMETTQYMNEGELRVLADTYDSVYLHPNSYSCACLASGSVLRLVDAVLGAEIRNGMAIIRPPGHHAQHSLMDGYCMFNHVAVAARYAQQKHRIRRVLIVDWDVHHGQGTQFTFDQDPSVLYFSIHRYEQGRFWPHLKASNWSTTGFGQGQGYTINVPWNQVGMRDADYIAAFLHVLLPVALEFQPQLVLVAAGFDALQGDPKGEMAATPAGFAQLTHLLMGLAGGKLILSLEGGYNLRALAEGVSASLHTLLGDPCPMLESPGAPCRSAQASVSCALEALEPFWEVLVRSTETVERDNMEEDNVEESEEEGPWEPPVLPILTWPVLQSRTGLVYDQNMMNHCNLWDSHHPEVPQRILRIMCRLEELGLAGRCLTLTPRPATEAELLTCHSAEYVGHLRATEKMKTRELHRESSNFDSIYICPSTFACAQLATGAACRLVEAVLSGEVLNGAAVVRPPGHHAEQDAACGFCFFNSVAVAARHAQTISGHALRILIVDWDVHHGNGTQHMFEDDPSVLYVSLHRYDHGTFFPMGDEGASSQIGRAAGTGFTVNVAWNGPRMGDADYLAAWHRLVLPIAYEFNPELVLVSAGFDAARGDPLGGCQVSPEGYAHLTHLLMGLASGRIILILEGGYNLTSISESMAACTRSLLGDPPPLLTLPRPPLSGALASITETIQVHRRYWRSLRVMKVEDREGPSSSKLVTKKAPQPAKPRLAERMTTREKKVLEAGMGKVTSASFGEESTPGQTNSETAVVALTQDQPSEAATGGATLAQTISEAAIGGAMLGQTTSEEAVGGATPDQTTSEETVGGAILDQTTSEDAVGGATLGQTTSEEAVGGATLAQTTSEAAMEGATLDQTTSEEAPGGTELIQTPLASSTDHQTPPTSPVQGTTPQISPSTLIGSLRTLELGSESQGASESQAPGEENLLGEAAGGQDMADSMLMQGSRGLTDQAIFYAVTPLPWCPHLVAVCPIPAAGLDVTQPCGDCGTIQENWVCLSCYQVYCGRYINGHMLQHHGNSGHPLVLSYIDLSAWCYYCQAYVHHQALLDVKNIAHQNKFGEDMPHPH

[2] = tested on: HL-60; experiment: Cytotoxicity against human HL-60 cells assessed as cell health index score at 0.005 to 100 uM incubated for 4 hrs by fluorescent dye based flow cytometric analysis; format: toxicity; details: hl-60, 4 h, dose 0.005-100 µM
[3] = tested on: MM1.S; experiment: Cytotoxicity against human MM1.S cells at 0.025 to 0.3 uM incubated for 24 hrs by cellTiter-Glo luminescent cell viability assay; format: functional, cell-based
[4] = tested on: MM1.S; experiment: Effect on bortezomib-induced human MM1.S cells at 1 to 10 uM pretreated with bortezomib for 6 hrs followed by compound addition and measured after 7 to 18 hrs by cellTiter-Glo luminescent cell viability assay; format: functional, cell-based; details: dose 1-10 µM, time 7-18 hrs
[5] = target: T1, Protein deacetylase HDAC6; experiment: Inhibition of HDAC6 deacetylase domain 2 (unknown origin) using fluorogenic HDAC substrate incubated for 15 to 60 mins by fluorimetric analysis
[6] = tested on: MDCK; experiment: Cytotoxicity against dog MDCK cells at 50 uM; format: toxicity, cell-based, Canis lupus familiaris
[7] = tested on: HEp-2; experiment: Cytotoxicity against human HEp-2 cells at 50 uM; format: toxicity, cell-based; details: hep-2, 50 µM
[8] = tested on: Hep 3B2; experiment: Cytotoxicity against human Hep3B cells at 50 uM; format: toxicity, cell-based; details: hep 3b2, 50 µM
[9] = Cytotoxicity against green monkey […] cells at 50 uM; format: toxicity, cell-based; details: chlorocebus sabaeus
[10] = tested on: HEL 299; experiment: Cytotoxicity against human HEL 299 cells at 50 uM; format: toxicity, cell-based; details: hel 299, 50 µM
[11] = Cytotoxicity against human HEp-2 cells; format: toxicity, cell-based
[12] = Cytotoxicity against dog MDCK cells; format: toxicity, cell-based, Canis lupus familiaris
[13] = Cytotoxicity against green monkey […] cells; format: toxicity, cell-based; details: chlorocebus sabaeus
[14] = Cytotoxicity against human HEL 299 cells; format: toxicity, cell-based
[15] = Cytotoxicity against human Hep3B cells; format: toxicity, cell-based, Hep 3B2
[16] = tested on: RPMI-8226; experiment: Cytotoxicity against human RPMI-8226 cells at 8 nM incubated for 24 hrs by cellTiter-Glo assay relative to control; format: functional
[17] = tested on: RPMI-8226; experiment: Cytotoxicity against human RPMI-8226 cells at 2 to 12 nM incubated for 24 hrs by cellTiter-Glo assay; format: functional, cell-based; details: RPMI-8226, 24 h
[18] = tested on: MM1.S; experiment: Cytotoxicity against human MM1.S cells assessed as reduction in cell viability at 1 to 10 nM incubated for 24 hrs by cellTiter-Glo luminescent cell viability assay; format: functional, cell-based
[19] = tested on: MM1.S; experiment: Cytotoxicity against human MM1.S cells at 8 nM incubated for 24 hrs by cellTiter-Glo assay relative to control; format: functional

SMILES: CC(C)C[C@@H](C=O)NC(=O)[C@H](CC(C)C)NC(=O)[C@H](CC(C)C)NC(=O)OCc1ccccc1 [MG-132] (Cbz-Leu-Leu-Leu-aldehyde)
Activity [2]: > 0.5
IC50 [3]: 0.15 µM

SMILES: CCOC(=O)CCc1nc2ccccc2c(=O)n1C
Activity [4]: inactive
Activity [2]: 0.31

SMILES: O=C(NO)c1ccc(Cn2c3c(c4ccccc42)CS(=O)(=O)CC3)cc1
IC50 [5]: 0.019 µM

SMILES: CCOC(=O)CCc1nc(OCc2ccccc2)c2ccccc2n1
Activity [6]: Toxic
Activity [7]: Toxic
Activity [8]: Toxic
Activity [9]: Toxic
Activity [10]: Toxic

SMILES: CCOC(=O)CCc1nc2ccccc2c(=O)n1Cc1ccc(F)cc1
Activity [2]: 0.31

SMILES: CN1CCc2c(c3ccccc3n2Cc2ccc(C(=O)NO)cc2)C1 [TUBASTATIN A]
Activity [2]: > 0.5

SMILES: O=C(O)CCn1c2c(c3ccccc31)CS(=O)(=O)CC2
IC50 [1]: 285 µM

SMILES: CC(C)C[C@H](NC(=O)[C@H](Cc1ccccc1)NC(=O)c1cnccn1)B(O)O [BORTEZOMIB]
CC50 [11]: 1.2 µM
CC50 [15]: 1.2 µM
CC50 [12]: 1.2 µM
Activity [2]: > 0.5
Activity [16]: ~50%
IC50 [17]: 0.0096 µM
CC50 [13]: 1.2 µM
CC50 [14]: 1.2 µM
IC50 [18]: 0.00432 µM
Activity [19]: ~10%

SMILES: O=C(O)CCc1nc2ccccc2c(=O)n1Cc1ccc(Cl)cc1
IC50 [1]: 68 µM

SMILES: CCn1c(CCC(=O)O)nc2ccccc2c1=O
IC50 [1]: 20.5 µM

SMILES: CCOC(=O)CCc1nc2ccccc2c(=O)n1Cc1ccccc1
Activity [2]: 0.31

SMILES: CC(/C=C/C(=O)NO)=C\[C@@H](C)C(=O)c1ccc(N(C)C)cc1 [TRICHOSTATIN]
CC50 [15]: 0.4 µM

More lines, now with the values ahead:

IC50 [1]: 162 µM
SMILES: O=C(O)CCn1c2c(c3cc(-c4ccc(F)cc4)ccc31)CS(=O)(=O)CC2

IC50 [1]: 127 µM
SMILES: O=C(O)CCc1nc2ccccc2c(=O)n1Cc1ccc(F)cc1

IC50 [1]: 542 µM
SMILES: O=C(O)CCC1C(=O)N(Cc2ccccc2)c2ccccc21 (stereo not drawn)

IC50 [1]: 33.1 µM
SMILES: O=C(O)CCc1nc2ccccc2c(=O)n1Cc1ccccc1

IC50 [1]: 61.7 µM
SMILES: CCCn1c(CCC(=O)O)nc2ccccc2c1=O

IC50 [1]: 5 µM
SMILES: Cn1c(CCC(=O)O)nc2ccccc2c1=O

IC50 [1]: 168 µM
SMILES: O=C(O)CCn1c2c(c3cc(F)ccc31)CS(=O)(=O)CC2
